Experimental data from patent US20110178396A1, “Nicotinamide Derivatives” (CRC FOR BIOMEDICAL IMAGING DEVELOPMENT LTD., priority 2008, published 2011).

What was measured:
[1] = HPLC metabolite analysis in plasma, tumour, eye and urine; type: in vivo; details: for Percentage Unchanged Tracer: HPLC
[2] = test system: A375 human amelanotic melanoma tumour; test: Biodistribution in A375 melanoma tumour bearing mice; type: in vivo, BALB/c nude mice; details: for Organ distribution Intestine / Organ distribution Liver / Organ distribution Spleen / Organ distribution Stomach / Organ distribution Thyroid / Organ distribution Tumour: mean ± S.D.
Procedure: Animal experiments were performed in compliance with the NHMRC Australian Code of Practice for the care and use of animals for scientific purposes. Female C57BL/6J black and BALB/c nude albino mice of 5 weeks age were obtained from the Animal Resources Centre, Western Australia. B16F0 murine melanoma cells were originally obtained from European Collection of Cell Cultures (UK) and A375 human amelanotic melanoma cells were originally obtained from American Type Culture Collection (USA). Before transplantation, B16F0 and A375 melanoma cells were maintained as a monolayer in RPMI culture medium supplemented with 10% foetal calf serum and antibiotics and passaged with trypsinisation. Early passages were frozen and stored in liquid nitrogen. Cells were passaged to P=10 and then discarded. Frozen aliquots were grown in a monolayer culture to between 80-95% confluence and for transplantation were trypsinised and washed with Ca^2+ and Mg^2+ free phosphate buffered saline (PBS). For inoculation, B16F0 melanoma cells were resuspended in Ca^2+ and Mg^2+ free PBS at 3 or 5×10^6 viable cells per ml and 0.1 ml was subcutaneously injected at the left flank of 6-7 weeks old C57BL/6J mice. Eleven days later, tumours could be palpated in >98% of inoculated animals. A375 human melanoma cells were resuspended at 1×10^7 viablecells per ml and 0.1 ml was injected subcutaneously at the left flank of 6 weeks old BALB/c nude mice and 25-26 days later tumours could be palpated with ˜60% of inoculated animals developing tumours.
Eleven days (B16F0 melanoma) and 25 days (A375 human melanoma) after tumour transplantation, the [^18F]nicotinamides (0.5-1.5 MBq, 100 μl) and [^123I]nicotinamide (0.37-0.74 MBq, 100 μl) derivatives were injected intravenously via the tail vein into mice (15-18 g). Time points of 1, 3, 6, 24, 48, 72 h after injection were chosen for determining the distribution of each compound in various organs and tissues for the iodine-123 labelled compounds and between 15 min and 6 hours (e.g. 15 min, 30 min, 1 h, 2 h, 4 h or 6 h) were chosen for the ^18F-labelled compounds. At defined times post injection, groups of mice (n=5) were weighed, sacrificed by CO2 administration followed by cervical dislocation and dissected. Selected organs were weighed and their radioactivity measured with a γ-counter. The remaining activity in the carcass was also determined in order to obtain the total activity in the mouse at defined time points. The fraction of injected activity (% ID) in the organ was calculated by comparison with suitable dilutions of the injected dose. Then, the radioactivity concentration in the organ (% ID/g) was found by dividing the % ID for each organ by the weight of the organ.

[3] = A375 tumour bearing mice, 30 min
[4] = A375 tumour, BALB/c nude mice, 1 h, n = 5
[5] = A375 tumour, BALB/c nude mice, 1 h, mean ± SD, n = 5
[6] = A375 tumour, BALB/c nude mice, 6 h, n = 5
[7] = A375 tumour, BALB/c nude mice, 6 h, mean ± SD, n = 5
[8] = A375 tumour, BALB/c nude mice, 24 h, n = 5
[9] = A375 tumour, BALB/c nude mice, 24 h, mean ± SD, n = 5

CCN(CC)CCNC(=O)c1ccc(F)nc1 [[^18F]MEL2, 6-Fluoro-N-[2-(diethylamino)ethyl]nicotinamide]
Percentage Unchanged Tracer ([1]; Eye, 15 minutes): 100%
Percentage Unchanged Tracer ([1]; Eye, 60 minutes): 96%
Percentage Unchanged Tracer ([1]; Eye, 120 minutes): 99%
form of activity taken up in the tumour and eye ([1]; HPLC analysis at various time points): unchanged [^18F]MEL2 and not metabolites
form excreted in urine ([1]; HPLC analysis, all time points studied): excreted predominately as the unchanged radiotracer
Percentage Unchanged Tracer ([1]; Plasma, 15 minutes): 85%
Percentage Unchanged Tracer ([1]; Plasma, 60 minutes): 79%
Percentage Unchanged Tracer ([1]; Plasma, 120 minutes): 63%
Percentage Unchanged Tracer ([1]; Tumour, 15 minutes): 100%
Percentage Unchanged Tracer ([1]; Tumour, 60 minutes): 100%
Percentage Unchanged Tracer ([1]; Tumour, 120 minutes): 98%
Percentage Unchanged Tracer ([1]; Urine, 60 minutes): 90%
Percentage Unchanged Tracer ([1]; Urine, 120 minutes): 87%
uptake in tissue (tumour and eyes) ([2]; A375 amelanotic melanoma tumour bearing mice, three hour period): low uptake
uptake BLADDER [2, 3]: 8.937 % ID/g
uptake BLOOD [2, 3]: 1.323 % ID/g
uptake BONE [2, 3]: 1.912 % ID/g
uptake BRAIN [2, 3]: 1.831 % ID/g
uptake EYES [2, 3]: 1.704 % ID/g
uptake GIT [2, 3]: 3.432 % ID/g
uptake HEART [2, 3]: 1.898 % ID/g
uptake KIDNEY [2, 3]: 7.103 % ID/g
uptake LIVER [2, 3]: 6.820 % ID/g
uptake LUNGS [2, 3]: 2.836 % ID/g
uptake MUSCLE [2, 3]: 2.125 % ID/g
uptake SKIN [2, 3]: 2.521 % ID/g
uptake SPLEEN [2, 3]: 4.093 % ID/g
uptake STOMACH [2, 3]: 3.795 % ID/g
uptake THYROID [2, 3]: 2.745 % ID/g
uptake TUMOUR [2, 3]: 2.633 % ID/g
uptake URINE [2, 3]: 609.148 % ID/g
uptake BLADDER ([2]; A375 tumour bearing mice, 1 h): 3.717 % ID/g
uptake BLOOD ([2]; A375 tumour bearing mice, 1 h): 0.480 % ID/g
uptake BONE ([2]; A375 tumour bearing mice, 1 h): 0.863 % ID/g
uptake BRAIN ([2]; A375 tumour bearing mice, 1 h): 0.822 % ID/g
uptake EYES ([2]; A375 tumour bearing mice, 1 h): 0.626 % ID/g
uptake GIT ([2]; A375 tumour bearing mice, 1 h): 1.564 % ID/g
uptake HEART ([2]; A375 tumour bearing mice, 1 h): 0.604 % ID/g
uptake KIDNEY ([2]; A375 tumour bearing mice, 1 h): 2.032 % ID/g
uptake LIVER ([2]; A375 tumour bearing mice, 1 h): 2.670 % ID/g
uptake LUNGS ([2]; A375 tumour bearing mice, 1 h): 0.939 % ID/g
uptake MUSCLE ([2]; A375 tumour bearing mice, 1 h): 0.865 % ID/g
uptake SKIN ([2]; A375 tumour bearing mice, 1 h): 1.265 % ID/g
uptake SPLEEN ([2]; A375 tumour bearing mice, 1 h): 1.351 % ID/g
uptake STOMACH ([2]; A375 tumour bearing mice, 1 h): 1.899 % ID/g
uptake THYROID ([2]; A375 tumour bearing mice, 1 h): 1.162 % ID/g
uptake TUMOUR ([2]; A375 tumour bearing mice, 1 h): 0.920 % ID/g
uptake URINE ([2]; A375 tumour bearing mice, 1 h): 185.427 % ID/g
uptake BLADDER ([2]; A375 tumour bearing mice, 2 h): 4.835 % ID/g
uptake BLOOD ([2]; A375 tumour bearing mice, 2 h): 0.171 % ID/g
uptake BONE ([2]; A375 tumour bearing mice, 2 h): 0.548 % ID/g
uptake BRAIN ([2]; A375 tumour bearing mice, 2 h): 0.224 % ID/g
uptake EYES ([2]; A375 tumour bearing mice, 2 h): 0.238 % ID/g
uptake GIT ([2]; A375 tumour bearing mice, 2 h): 0.580 % ID/g
uptake HEART ([2]; A375 tumour bearing mice, 2 h): 0.205 % ID/g
uptake KIDNEY ([2]; A375 tumour bearing mice, 2 h): 0.650 % ID/g
uptake LIVER ([2]; A375 tumour bearing mice, 2 h): 0.985 % ID/g
uptake LUNGS ([2]; A375 tumour bearing mice, 2 h): 0.324 % ID/g
uptake MUSCLE ([2]; A375 tumour bearing mice, 2 h): 0.280 % ID/g
uptake SKIN ([2]; A375 tumour bearing mice, 2 h): 0.290 % ID/g
uptake SPLEEN ([2]; A375 tumour bearing mice, 2 h): 0.434 % ID/g
uptake STOMACH ([2]; A375 tumour bearing mice, 2 h): 0.748 % ID/g
uptake THYROID ([2]; A375 tumour bearing mice, 2 h): 0.356 % ID/g
uptake TUMOUR ([2]; A375 tumour bearing mice, 2 h): 0.254 % ID/g
uptake URINE ([2]; A375 tumour bearing mice, 2 h): 97.912 % ID/g
uptake BLADDER ([2]; A375 tumour bearing mice, 3 h): 0.360 % ID/g
uptake BLOOD ([2]; A375 tumour bearing mice, 3 h): 0.054 % ID/g
uptake BONE ([2]; A375 tumour bearing mice, 3 h): 0.443 % ID/g
uptake BRAIN ([2]; A375 tumour bearing mice, 3 h): 0.073 % ID/g
uptake EYES ([2]; A375 tumour bearing mice, 3 h): 0.110 % ID/g
uptake GIT ([2]; A375 tumour bearing mice, 3 h): 0.227 % ID/g
uptake HEART ([2]; A375 tumour bearing mice, 3 h): 0.045 % ID/g
uptake KIDNEY ([2]; A375 tumour bearing mice, 3 h): 0.197 % ID/g
uptake LIVER ([2]; A375 tumour bearing mice, 3 h): 0.323 % ID/g
uptake LUNGS ([2]; A375 tumour bearing mice, 3 h): 0.099 % ID/g
uptake MUSCLE ([2]; A375 tumour bearing mice, 3 h): 0.108 % ID/g
uptake SKIN ([2]; A375 tumour bearing mice, 3 h): 0.169 % ID/g
uptake SPLEEN ([2]; A375 tumour bearing mice, 3 h): 0.103 % ID/g
uptake STOMACH ([2]; A375 tumour bearing mice, 3 h): 0.302 % ID/g
uptake THYROID ([2]; A375 tumour bearing mice, 3 h): 0.128 % ID/g
uptake TUMOUR ([2]; A375 tumour bearing mice, 3 h): 0.096 % ID/g
uptake URINE ([2]; A375 tumour bearing mice, 3 h): 37.842 % ID/g

CCN(CC)CCNC(=O)c1cncc(I)c1 [[^123I]11, N-(2-(diethylamino)ethyl)-5-iodonicotinamide]
tumour standardized uptake value (SUVt) ([2]; A375 tumour, BALB/c nude mice, 1 h): 0.7 ± 0.1
Organ distribution Intestine [2, 4]: 14 ± 2 % ID/organ
Organ distribution Liver [2, 4]: 2.3 ± 0.2 % ID/organ
Organ distribution Spleen [2, 4]: 0.16 ± 0.01 % ID/organ
Organ distribution Stomach [2, 4]: 1.6 ± 0.2 % ID/organ
Organ distribution Thyroid [2, 4]: 0.40 ± 0.07 % ID/organ
Organ distribution Tumour [2, 4]: 0.40 ± 0.16 % ID/organ
Uptake Lung [2, 5]: 1.56 ± 0.2 % ID/g
uptake BLOOD [2, 5]: 1.4 ± 0.2 % ID/g
uptake BRAIN [2, 5]: 0.14 ± 0.02 % ID/g
uptake HEART [2, 5]: 0.8 ± 0.1 % ID/g
uptake KIDNEY [2, 5]: 1.9 ± 0.3 % ID/g
uptake LIVER [2, 5]: 2.2 ± 0.4 % ID/g
uptake TUMOUR [2, 5]: 1.2 ± 0.2 % ID/g
tumour standardized uptake value (SUVt) ([2]; A375 tumour, BALB/c nude mice, 6 h): 0.9 ± 0.2
Organ distribution Intestine [2, 6]: 2 ± 1 % ID/organ
Organ distribution Liver [2, 6]: 0.7 ± 0.2 % ID/organ
Organ distribution Spleen [2, 6]: 0.03 ± 0.01 % ID/organ
Organ distribution Stomach [2, 6]: 0.4 ± 0.1 % ID/organ
Organ distribution Thyroid [2, 6]: 1.0 ± 0.5 % ID/organ
Organ distribution Tumour [2, 6]: 0.13 ± 0.06 % ID/organ
Uptake Lung [2, 7]: 0.4 ± 0.2 % ID/g
uptake BLOOD [2, 7]: 0.5 ± 0.2 % ID/g
uptake BRAIN [2, 7]: 0.03 ± 0.01 % ID/g
uptake HEART [2, 7]: 0.18 ± 0.07 % ID/g
uptake KIDNEY [2, 7]: 0.47 ± 0.17 % ID/g
uptake LIVER [2, 7]: 0.7 ± 0.3 % ID/g
uptake TUMOUR [2, 7]: 0.4 ± 0.1 % ID/g
tumour standardized uptake value (SUVt) ([2]; A375 tumour, BALB/c nude mice, 24 h): 0.3 ± 0.1
Organ distribution Intestine [2, 8]: 0.04 ± 0.01 % ID/organ
Organ distribution Liver [2, 8]: 0.09 ± 0.02 % ID/organ
Organ distribution Spleen [2, 8]: 0.002 % ID/organ
Organ distribution Stomach [2, 8]: 0.01 ± 0.00 % ID/organ
Organ distribution Thyroid [2, 8]: 1.4 ± 0.8 % ID/organ
Organ distribution Tumour [2, 8]: 0.001 % ID/organ
Uptake Lung [2, 9]: 0.015 ± 0.004 % ID/g
uptake BLOOD [2, 9]: 0.013 ± 0.002 % ID/g
uptake BRAIN [2, 9]: 0.002 ± 0.001 % ID/g
uptake HEART [2, 9]: 0.012 ± 0.003 % ID/g
uptake KIDNEY [2, 9]: 0.013 ± 0.002 % ID/g
uptake LIVER [2, 9]: 0.08 ± 0.02 % ID/g
uptake TUMOUR [2, 9]: 0.007 ± 0.002 % ID/g
